pIC50: −log10 of the molar value.
target: T1, Poly [ADP-ribose] polymerase tankyrase-1 (Homo sapiens, UniProt O95271); test: Inhibition of human recombinant […] TNKS1 (1030 to 1317 residues) expressed in Escherichia coli assessed as inhibition by fluorescence based analysis
T1 sequence (O95271 whole entry): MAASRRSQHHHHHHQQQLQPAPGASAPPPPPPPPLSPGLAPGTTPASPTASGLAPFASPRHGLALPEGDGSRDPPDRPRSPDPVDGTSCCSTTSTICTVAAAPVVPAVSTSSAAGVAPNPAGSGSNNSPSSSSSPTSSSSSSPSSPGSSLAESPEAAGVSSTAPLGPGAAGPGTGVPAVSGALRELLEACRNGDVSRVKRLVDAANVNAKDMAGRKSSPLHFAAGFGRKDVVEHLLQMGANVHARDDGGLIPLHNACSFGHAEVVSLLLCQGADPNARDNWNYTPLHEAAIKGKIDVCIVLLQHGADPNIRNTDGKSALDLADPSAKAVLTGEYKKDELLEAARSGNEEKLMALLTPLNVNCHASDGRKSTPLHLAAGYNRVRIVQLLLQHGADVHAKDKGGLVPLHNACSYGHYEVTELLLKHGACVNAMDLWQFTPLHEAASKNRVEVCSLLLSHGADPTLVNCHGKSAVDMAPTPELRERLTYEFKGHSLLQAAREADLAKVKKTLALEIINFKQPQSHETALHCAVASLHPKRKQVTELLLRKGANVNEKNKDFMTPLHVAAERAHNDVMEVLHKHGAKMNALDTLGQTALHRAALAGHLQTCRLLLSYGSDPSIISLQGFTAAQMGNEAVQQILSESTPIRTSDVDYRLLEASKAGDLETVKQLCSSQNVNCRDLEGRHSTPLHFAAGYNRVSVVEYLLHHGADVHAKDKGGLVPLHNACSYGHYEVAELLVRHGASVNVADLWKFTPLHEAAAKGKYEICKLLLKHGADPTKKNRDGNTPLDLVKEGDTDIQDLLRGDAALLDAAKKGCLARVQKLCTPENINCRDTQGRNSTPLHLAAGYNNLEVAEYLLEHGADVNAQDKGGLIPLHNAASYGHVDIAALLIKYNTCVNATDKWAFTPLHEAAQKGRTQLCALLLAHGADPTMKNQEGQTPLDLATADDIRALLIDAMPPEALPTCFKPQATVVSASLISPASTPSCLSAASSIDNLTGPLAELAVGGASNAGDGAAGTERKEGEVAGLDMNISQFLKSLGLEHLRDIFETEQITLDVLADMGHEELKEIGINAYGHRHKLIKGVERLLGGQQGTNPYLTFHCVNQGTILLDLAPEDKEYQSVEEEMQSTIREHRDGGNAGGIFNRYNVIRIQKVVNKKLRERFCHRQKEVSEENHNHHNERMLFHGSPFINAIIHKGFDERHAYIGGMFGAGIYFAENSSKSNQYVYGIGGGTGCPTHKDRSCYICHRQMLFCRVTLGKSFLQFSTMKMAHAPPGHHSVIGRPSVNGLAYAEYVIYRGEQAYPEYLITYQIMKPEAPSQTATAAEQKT

Row | SMILES | pIC50
1 | O=C(Nc1ccc(-c2nc3ccccc3c(=O)[nH]2)cc1)c1cccs1 | 7.68
2 | COC(=O)c1ccc(-c2nc3ccccc3c(=O)[nH]2)cc1 | 7.64
3 | O=C1OCCN1c1ccc(-c2nc3ccccc3c(=O)[nH]2)cc1 | 7.82
4 | CC1(c2ccc(-c3nc4ccccc4c(=O)[nH]3)cc2)NC(=O)NC1=O (stereo not given) | 8.30
5 | NS(=O)(=O)c1ccc(-c2nc3ccccc3c(=O)[nH]2)cc1 | 7.92
